Several values for one entry are separate records, joined by “and”; a condition that tells them apart may be missing. Equal entries are not always repeated.

For `O=[N+]([O-])c1ccc(O)c([N+](=O)[O-])c1` [2,4-Dinitrophenol], the melting point worked out at 108 °C. With `CC(CCc1oc2c(Br)cc(Br)cc2c1-c1ccc(C)o1)=NO` the figure was 158 °C. `Cn1c2ccccc2c2ccccc21` [9-Methyl-9H-carbazole]: the melting point was 91 °C. With `CCCCCC(=O)OC` [Methyl hexanoate] the figure was -71 °C; with `COc1ccc(CCN2CCC(Nc3nc4ccccc4n3Cc3ccc(F)cc3)CC2)cc1` [Astemizole], 149 °C. With `Nc1ccc(I)cn1` [2-amino-5-iodopyridine] the figure was 128 °C; with `O=C=N/C1CCCCC1` [Isocyanatocyclohexane], -80 °C; with `O=[N+]([O-])c1cc[n+]([O-])cc1` [4-nitropyridine n-oxide], 161 °C. With `N#Cc1ccc(Cl)cc1` [4-chlorobenzonitrile] the figure was 92 °C; with `CCCCCCCCCCCC(C)=O` [2-tridecanone], 30 °C. `Cc1cnc(s1)NC(=O)C\3=C(/O)c2ccccc2S(=O)(=O)N/3C` [meloxicam] returned a melting point of 254 °C. As for `Nc1ccc(N2CCOCC2)cc1` [4-(4-morpholinyl)aniline], the figure is 131 °C; as for `CC(=O)c1ccc(C)c([N+](=O)[O-])c1` [4'-methyl-3'-nitroacetophenone], 60 °C; as for `CC12CCC3C(CCC4CC(=O)CCC43C)C1CCC2=O` (stereo unspecified) [androstane-3,17-dione], 132 °C. With `CCOC(=O)Nc1ccc(NCc2ccc(F)cc2)nc1N` [flupirtine] the figure was 114 °C; with `CO[C@H]1O[C@H](CO)[C@@H](O)[C@H](O)[C@H]1O` [methyl alpha-d-glucopyranoside], 169 °C. `CCCCCCCCCCCCCCCCCl` [1-chlorohexadecane] registered a melting point of 9 °C. With `CCCCCCCc1ccc(O)cc1` [4-n-heptylphenol] the figure was 27 °C; with `Cc1c[nH]c2ccccc12` [3-methylindole], 96 °C. As for `Nc1cc(C(=O)O)cc(C(F)(F)F)c1` [3-amino-5-(trifluoromethyl)benzoic acid], the figure is 144 °C. With `Clc1ccc(C(c2ccccc2Cl)C(Cl)(Cl)Cl)cc1` (stereo unspecified) [2,4'-DDT] the figure was 75 °C; with `Clc1cc(Cl)cc(Cl)c1` [1,3,5-trichlorobenzene], 65 °C (2×) and 64 °C. As to `c1ccc(CCc2ccccc2)cc1` [1,2-diphenylethane], the melting point was 51.5 °C and 52 °C.

The compound `Cc1ccc(-c2ccc(/C=C/C(=O)c3ccccc3)o2)cc1` [(2E)-3-[5-(4-Methylphenyl)-2-furyl]-1-phenylprop-2-en-1-one] displayed a melting point of 101 °C. With `COc1ccc2c3c1O[C@H]1[C@@H](O)C=C[C@H]4[C@@H](C2)N(C)CC[C@@]341` [codeine] the figure was 158 °C; with `Nc1ccc(C/C(=N/O)c2ccc(N)cc2)cc1` [(1Z)-1,2-bis(4-aminophenyl)ethanone oxime], 147 °C. As for `Cc1ccc2c(c1)-c1c(cc3c(c1-c1ccccc1)C(=O)CC(C)(C)C3)CO2`, the figure is 199 °C; as for `CN(C)c1ccc(C=O)cc1` [4-(Dimethylamino)benzaldehyd], 75 °C; as for `COc1ccc(B(O)O)cn1` [6-methoxypyridine-3-boronic acid], 133 °C. With `CN1CCN(C2=Nc3cc(Cl)ccc3Nc3ccccc32)CC1` [clozapine] the figure was 184 °C; with `CCC(=C(c1ccccc1)c1ccc(OCCN(C)C)cc1)c1ccccc1` [tamoxifen], 96 °C; with `O=[N+]([O-])c1ccc(Oc2ccc(Cl)cc2Cl)cc1` [2,4-Dichloro-1-(4-nitrophenoxy)benzene], 70.5 °C.

Take `CCCCCC1CCCCC1` [N-pentylcyclohexane]: the melting point was -58 °C. With `c1ccc2c(c1)ccc1c3ccccc3ccc21` [Chrysene] the figure was 255 °C; with `CCCCCCn1c(=O)c2c(ncn2C)n(C)c1=O` [1-n-hexyltheobromine], 81 °C. As for `COCC(=O)N(c1c(C)cccc1C)C(C)C(=O)OC` (stereo unspecified) [Metalaxyl], the figure is 72 °C; as for `CC(C)CC1=C/C(=C/c2ccc(-c3ccc([N+](=O)[O-])cc3)o2)C(=O)O1`, 163 °C.

`CCc1cccc(CC)c1NC(=O)CCl` [2-chloro-2',6'-diethylacetanilide] returned a melting point of 130 °C. `c1ccc2nccnc2c1` [quinoxaline] showed a melting point of 30 °C. With `Cc1ccnc(NS(=O)(=O)c2ccc(N)cc2)n1` [sulfamerazine] the figure was 236 °C; with `CC1(C)C(=O)[C@@]2(C)CC[C@@H]1C2` [fenchone], 6 °C; with `CC(C)NC(C)C` [diisopropylamine], -61 °C. As for `CC(C)CCCC(C)C1CCC2C3CC=C4CC(Cl)CCC4(C)C3CCC12C` (stereo unspecified) [3-chlorocholest-5-ene], the melting point is 93 °C.

The compound `OC1[C@H]2CC[C@@H]1[C@H]1C=C[C@@H]2O1` (stereo partly drawn) [(1R,2S,5R,6S)-9-oxatricyclo[4.2.1.1~2,5~]dec-7-en-10-ol] came in with a melting point of 122 °C. With `CC(C)C(=O)O` [Isobutyric Acid] the figure was -46 °C. In the case of `Cc1ccccc1N` [o-Toluidine], the melting point is -16 °C.

`CC1(C)O[C@]2(C)CC[C@H]1CC2` [(1s,4s)-1,3,3-Trimethyl-2-oxabicyclo[2.2.2]octane] had a melting point of 2 °C.

`CCCC(C)(COC(N)=O)COC(N)=O` [Sowell] came in with a melting point of 104 °C.

Compound `CCc1nc(N)nc(Cl)c1C` [4-chloro-6-ethyl-5-methylpyrimidin-2-amine] returned a melting point of 139 °C. As for `C(=C\c1nn2c(COc3ccccc3)nnc2s1)/c1ccccc1`, the figure is 142 °C. With `CC(=O)N(C1=NC(=O)/C(=C/c2cc(C)n(-c3ccccc3)c2C)S1)c1ccccc1` [OSM-S-49] the figure was 238 °C. With `O=C=N/c1cc(ccc1C)N=C=O` [2,4-Diisocyanato-1-methylbenzene] the figure was 20.5 °C; with `CCC(C)=O` [2-butanone], -86 °C. `COc1cc(CCC(C)=O)ccc1O` [4-(4-hydroxy-3-methoxyphenyl)-2-butanone] had a melting point of 41 °C.

For the compound `CN(C)C(=S)NN` [4,4-dimethyl-3-thiosemicarbazide], the melting point worked out at 145 °C. As for `O=C(O)Cn1cncn1` [1h-1,2,4-triazole-1-acetic acid], the figure is 203 °C. With `C=Cc1ccccc1` [Styrene] the figure was -31 °C; with `O=Cc1ccc(O)c(O)c1O` [2,3,4-trihydroxybenzaldehyde], 167 °C. As for `CC(C)C(=O)C(C)C` [diisopropyl ketone], the figure is -69 °C; as for `CCOC(=O)c1csc(C)n1` [ethyl 2-methylthiazole-4-carboxylate], 55 °C. As to `Cc1n[nH]c(=S)[nH]c1=O` [6-aza-2-thiothymine], the melting point was 220 °C. With `Oc1cccc2ccccc12` [1-naphthol] the figure was 96 °C. With `CCOc1cc(C)ccc1O` [2-ethoxy-4-methylphenol] the figure was 29 °C; with `Fc1c(F)c(F)c(-c2c(F)c(F)c(F)c(F)c2F)c(F)c1F` [decafluorobiphenyl], 68 °C; with `c1ccc2cc(C3CNCCN3)ccc2c1` (stereo unspecified) [2-(2-naphthyl)piperazine], 102 °C. The compound `CCNc1nc(NC(C)(C)C)nc(SC)n1` [terbutryn] registered a melting point of 105 °C. As for `Cc1ccc2c(c1)no[n+]2[O-]` [5-methylbenzofuroxan], the figure is 97 °C. As for `CC(C)(C)c1ccc(C(C)(C)C)cc1` [1,4-di-tert-butylbenzene], the figure is 77 °C; as for `ClC(Cl)C(Cl)Cl` [1,1,2,2-Tetrachloroethane], -43 °C. For `COc1ccc2c(c1)no[n+]2[O-]` [5-Methoxybenzofurazan, 1-oxide], the melting point came to 118 °C. As for `Oc1ccccc1Br` [2-bromophenol], the figure is 5 °C; as for `COC(=O)c1ccc(F)cc1O` [methyl 4-fluorosalicylate], 39 °C; as for `Nc1c(Cl)cc(C(F)(F)F)cc1[N+](=O)[O-]` [2-chloro-6-nitro-4-(trifluoromethyl)aniline], 65 °C.

Regarding `O[C@@H]1CCC[C@@H]1O` [(1R,2S)-Cyclopentane-1,2-diol], the melting point came to 32.5 °C. With `Nc1ccc(-c2ccc(N)cc2N)c(N)c1` [biphenyl-2,2',4,4'-tetramine] the figure was 158 °C.

In turn, `CCCCCCCCCCCCCCCCCC(=O)O[C@H]1[C@H](O[C@@H]2[C@@H](C)[C@H](O[C@H]3C[C@@](C)(OC)[C@@H](O)[C@H](C)O3)[C@@H](C)C(=O)O[C@H](CC)[C@@](C)(O)[C@H](O)[C@@H](C)C(=O)[C@H](C)C[C@@]2(C)O)O[C@H](C)C[C@@H]1N(C)C` displayed a melting point of 102 °C. With `NNC(=O)c1ccncc1` [Isoniazid] the figure was 171 °C; with `Cn1c(=O)c2[nH]cnc2n(C)c1=O` [theophylline], 270 °C. As for `OCC=Cc1ccccc1` [cinnamyl_alcohol], the figure is 34 °C; as for `O=[N+]([O-])c1cc[n+]([O-])c(Cl)c1F` [2-chloro-3-fluoro-4-nitropyridine n-oxide], 177 °C; as for `Cc1ccc(N)cc1O` [5-Amino-o-cresol], 161 °C. As for `Nc1ccc(F)cc1F` [2,4-Difluoroaniline], the figure is -7.5 °C; as for `CN[C@@H](C)[C@H](O)c1ccccc1` [ephedrine], 34 °C; as for `O=C(Nc1ccccc1)Nc1ccccc1` [1,3-Diphenylurea], 238 °C. Consider `COc1cc(OC)c(C=O)c(OC)c1` [2,4,6-trimethoxybenzaldehyde], for which the melting point is 121 °C. With `COC1CC(C(=O)Cl)CC(OC)C1OC` (stereo unspecified) [3,4,5-trimethoxycyclohexanecarbonyl chloride] the figure was 82 °C.

The term melting point denotes the temperature, or range, at which the solid turns liquid.
